The values that follow are results of earlier work, collected in paper PMC5989765, “The safety, tolerability, and pharmacokinetic profile of GSK2838232, a novel 2nd generation HIV maturation inhibitor, as assessed in healthy subjects” (Pharmacology Research & Perspectives, 2018).

Data set [1] relates to HIV. Particulars: cited from earlier work.
In data set [2] the test system is HIV. Details: method as in PMID 20154583. The following applies: cited from earlier work.

On to `C=C(C)[C@@H]1CC[C@]2(NCCN3CCS(=O)(=O)CC3)CC[C@]3(C)[C@H](CC[C@@H]4[C@@]5(C)CC=C(c6ccc(C(=O)O)cc6)C(C)(C)[C@@H]5CC[C@]43C)[C@@H]12` [BMS‐955176], for which, in the data set on HIV [1] (Phase IIa clinical studies), the “anti‐HIV potency compared to BVM” value was “greater and dose‐related anti‐HIV potency”; the safety entry is recorded as “no obvious safety concerns”.

In the case of `C=C(C)[C@@H]1CC[C@]2(C(=O)O)CC[C@]3(C)[C@H](CC[C@@H]4[C@@]5(C)CC[C@H](OC(=O)CC(C)(C)C(=O)O)C(C)(C)[C@@H]5CC[C@]43C)[C@@H]12` [BVM, Bevirimat], in the data set with HIV [1], the “efficacy against naturally occurring polymorphisms in the HIV gag region (CA & Sp1)” value is listed as “lack of efficacy”. For the same compound, the “potency in the presence of human serum” value with HIV [2] is on record as “significant decrease in potency”.
